Entries after “also recorded” stand apart in the source; their conditions may differ.
Tests used:
[1] = ITC of phospholipid liposomes with calcium; assay type: binding; conditions: liposome with POPC 80:20, 25° C., unlike POPS
Experimental: Particularly, a protein solution was prepared by suspending a protein in 10 mM HEPES (pH 7.0). Phospholipid related ligand was titrated in the protein solution at 25° C. by using iTC200 micro calorimetry system (MicroCal Inc., USA), and the generated graph was corrected using Origin software (MicroCal Inc., USA). At this time, the phospholipid related ligand was prepared in the form of liposome by mixing POPC (1-palmitoyl-2-oleoyl-sn-glycero-3-phosphocholin) chloroform solution and POPS (1-palmitoyl-2-oleoyl-sn-glycero-3-phosphoserine), PI(3,4)P2 (1,2-dipalmotoyl-sn-glycero-3-phosphatidylinositol-3,4-[…]), PI(4,5)P2 (1,2-dipalmotoyl-sn-glycero-3-phosphatidylinositol-4,5-trisphosphate) or PI(3,4,5)P3 (1,2-dipalmotoyl-sn-glycero-3-phosphatidylinositol-3,4,5-trisphosphate) at the molar ratio of 80:20. The organic solvent was eliminated. The organic solvent was removed and a single layer lamellar was produced in HEPES (pH 7.0) using phospholipids.

[2] = system: Akt protein; assay: Western blotting of Akt protein phosphorylation in insulin-treated HepG2 cells; assay type: cell-based, human; conditions: PMA 0, 10, 50 or 100 nM or ionomycin 0, 1, 5, 10 or 20 μM, 100 nM insulin, dose-dependent
Experimental: First, male C57BL/6 mice at 8 weeks were divided into the fasted group wherein the mice were fasted for 16 hours and the refed group wherein the mice were fasted for 16 hours and then fed for 4 hours. Each group was sub-divided into the high fat diet group (HFD) and the normal diet group (chow). The liver cells were extracted from the raised mice by the same manner and under the same conditions as described in Example 1. The extracted liver cells were lysed in a lysis buffer containing phosphatase (Sigma-Aldrich, USA) and protease inhibitor (Sigma-Aldrich, USA). Proteins extracted from 2 to 3 mg of the liver tissue were homogenized by using a tissue homogenizer (TissuLyser, Qiagen, USA) for 1.5 minutes at a frequency of 1/30 sec. The homogenized lysate was centrifuged at 12,000 rpm for 15 minutes and the supernatant was obtained. The amount of the extracted protein was quantified by using a protein assay kit (Bio-Rad Laboratories, USA), and at this time BSA was used as a standard sample. 3 mg of the protein was mixed with 6× loading buffer, followed by electrophoresis using 10% SDS-PAGE gel. The electrophoresed protein was transferred onto a polyvinylidene fluoride (PVDF) membrane by using a transfer buffer at 4° C. with 120 V for 1.5 hours. The PVDF membrane on which the protein was transferred was pretreated with a blocking buffer prepared by mixing 5% skim milk with TBS buffer (TBS-T, pH 7.6) supplemented with Tween 20 for 30 minutes, and the membrane was washed with TBS-T. The washed membrane was added with the antibody against Akt (Cell Signaling Technology, USA), Akt(T308) (Cell Signaling Technology, USA), Akt(S473) (Cell Signaling Technology, USA), FOXO3A (Cell Signaling Technology, USA), FOXO3A(S253) (Cell Signaling Technology, USA), GSK-3β (Cell Signaling Technology, USA) or GSK-3β(S9) (Cell Signaling Technology, USA) protein as a primary antibody, followed by reaction at 4° C. for 12 hours. At this time, the antibody against actin (Santa Cruz Biotechnology, USA) protein was used for the control group. Upon completion of the reaction, the secondary antibody corresponding to the primary antibody was added thereto, followed by reaction at room temperature for 30 minutes. The PVDF membrane was washed with TBS-T buffer three times. The washed PVDF membrane was added with ECL solution (Thermo Scientific, USA), followed by image observation.
To investigate the changes in insulin sensitivity when insulin was added to the fatty liver cell model constructed in vitro, the phosphorylations of those proteins that were involved in insulin signal transduction were examined. PA was added to the human HepG2 cells prepared in Example 3, followed by reaction for 24 hours. […]

[3] = system: Akt protein; assay: Western blot of Akt activity with C2-Akt fusion protein and PI3K co-treated with PTEN or SHIP2; assay type: cell-based; conditions: cells with C2-Akt fusion protein and PI3K vectors co-treated with PTEN or SHIP2
Experimental: Particularly, the experiment was performed by the same manner under the same conditions as described in Example 2 except that the vector expressing the C2-Akt fusion protein and the vector expressing PI3K protein were co-treated with PTEN or SHIP2 and the antibody against Akt (Cell Signaling Technology, USA), Akt(T308) (Cell Signaling Technology, USA), Akt(S473) (Cell Signaling Technology, USA), PI3K (Cell Signaling Technology, USA), PTEN (Cell Signaling Technology, USA) or SHIP2 (Upstate Biotechnology, USA) protein was used as the primary antibody.

[4] = system: CHO cells; assay: Migration of mCherry-tagged PH or C2 domain to the cell membrane, fluorescence microscopy; assay type: cell-based
From the text: First, the PH domain of Akt1 protein or C2 domain of PKCβ protein was obtained by PCR using the primers consisting of the nucleotide sequences represented by […]. The obtained PCR product was cloned in pmCherry-C1 vector (Takara Clontech, Japan) by the conventional cloning method. CHO cells were transfected with the prepared vector by using lipofectamine according to the manufacturer's protocol. The transfected cells were selected by using blastidicin. Then, mCherry positive cells were confirmed by flow cytometry.
PMA at the concentration of 100 nM, ionomycin at the concentration of 10 μM or insulin at the concentration of 100 nM was added to the cells expressing the PH domain of Akt1 protein or the C2 domain of PKCβ protein and the location of the expressed protein was confirmed by fluorescence microscopy.

[5] = target: T1, PH domain of Akt protein (Homo sapiens, UniProt P31749); assay: Protein-lipid binding assay (PIP-strips) with PH domain of Akt protein
T1 construct: His6 (C); made in house; host or cells: E. coli BL21 (DE3), pET28a vector
Experimental: E. coli BL21 (DE3) cells were transfected with a vector containing the PH domain of Akt protein, and the cells were cultured in 50 Ml of LB medium supplemented with 50 μg/Ml of kanamycin. The culture was performed at 37° C. for 8 hours. Upon completion of the culture, the cells were transferred into a 25° C. agitation incubator. The cells were cultured until OD600 reached 0.6 to 1.0, and then 1 mM IPTG (isopropyl-β-D-1-thiogalactopyranoside) was added thereto. 18 hours after the addition of IPTG, centrifugation was performed at 7,000×g at 4° C. for 10 minutes to obtain cells. Sonication equilibrium buffer (150 mM NaCl, 50 mM Tris-HCl, pH 7.6) was added to the obtained cells. The cells added with the sonication equilibrium buffer were lysed by sonication. The PH domain of Akt protein was purified from the cell lysate by […] using nickel-nitrilotriacetic acid and HiLoad Superdex-200 column (GE Healthcare life science, USA). The purity of the purified protein was examined by SDS-PAGE (sodium dodecyl sulfate polyacrylamide gel electrophoresis).
Particularly, the analysis was performed by using membrane-immobilized lipid strips (PIP-strips, Echelon Biosciences Inc., USA). […]

Molecule: CCCCCCCCCCCCCCCC(=O)OCC(COP(=O)(O)OC1C(O)C(O)C(OP(=O)(O)O)C(OP(=O)(O)O)C1O)OC(=O)CCCCCCCCCCCCCCC (stereo not drawn) [PI(3,4)P2, 1,2-dipalmotoyl-sn-glycero-3-phosphatidylinositol-3,4-triphosphate]
- binding to calcium [1]: high affinity; also recorded: strong binding force

Molecule: CCCCCCCCCCCCCCCC(=O)OCC(COP(=O)(O)OC1C(O)C(OP(=O)(O)O)C(OP(=O)(O)O)C(OP(=O)(O)O)C1O)OC(=O)CCCCCCCCCCCCCCC (stereo not drawn) [PI(3,4,5)P3, 1,2-dipalmotoyl-sn-glycero-3-phosphatidylinositol-3,4,5-trisphosphate]
- binding to calcium [1]: high affinity; also recorded: strong binding force

Molecule: CCCCCCCCCCCCCCCC(=O)OCC(COP(=O)(O)OC1C(O)C(O)C(OP(=O)(O)O)C(OP(=O)(O)O)C1O)OC(=O)CCCCCCCCCCCCCCC (stereo not drawn) [PI(4,5)P2, 1,2-dipalmotoyl-sn-glycero-3-phosphatidylinositol-4,5-trisphosphate]
- binding to calcium [1]: high affinity; also recorded: strong binding force

Molecule: CCCCCCCCCCCCCC(=O)O[C@@H]1[C@@H](C)[C@@]2(O)[C@@H](C=C(CO)C[C@]3(O)C(=O)C(C)=C[C@@H]23)[C@@H]2C(C)(C)[C@]12OC(C)=O [PMA, phorbol myristate acetate]
- phosphorylation of Akt protein [2]: significantly inhibited

Molecule: C[C@H](CCC(=O)O)C[C@H](C)C[C@H](C)C(=O)/C=C(\O)[C@H](C)C[C@H](C)C/C=C/[C@@H](C)[C@@H](O)[C@@H](C)[C@@H](O)C[C@@H]1CC[C@@](C)([C@H]2CC[C@@](C)([C@@H](C)O)O2)O1 [ionomycin]
- phosphorylation of Akt protein [2]: significantly inhibited

Molecule: PTEN: phosphatase and tensin homolog, co-treated
- Akt protein activity [3]: reduced

B1: PH domain of Akt protein: PH domain of Akt1 protein (SEQ. ID. NO: 13) (protein)
chain: MSDVAIVKEGWLHKRGEYIKTWRPRYFLLKNDGTFIGYKERPQDVDQREAPLNNFSVAQCQLMKTERPRPNTFIIRCLQWTTVIERTFHVETPEEREEWTTAIQTVADGLKKQEEEEMDFRSGSPSDNSGAEEMEVSLAKPKHR
modifications: PH domain of Akt protein
- migration to the cell membrane ([4]; addition of insulin 100 nM): ted to the cell membrane
- migration to the cell membrane ([4]; increased intracellular calcium concentration (PMA 100 nM, ionomycin 10 μM)): not observed; also recorded: inhibited
- binding to PI(3,4)P2 or PI(3,4,5)P3 [5]: bound

Source: patent US11726082B2, “Screening method of drug candidates for treating disease using interaction between calcium and phosphatidylinositol phosphate” (Gachon University of Industry—Academic Cooperation …, priority 2017, dated 2023)
